Test results from patent publication US10369133B2, “Immunosuppressive compounds and therapeutics” (UNIVERSITY OF TENNESSEE RESEARCH FOUNDATION, priority 2013, dated 2019).

How the values were obtained:
NF-κB = NF-κB SEAP reporter gene assay in INS-1E cells; assay type: cell-based, rat; conditions: printed "at 504" (FIG. 2B: 5 μM); cytokine cocktail 10 ng/mL TNFα, 5 ng/mL IL-1β, 10 ng/mL IFN-γ; 24 hours
Protocol: Briefly, a plasmid construct containing NF-kB promoter and SEAP gene was transferred into INS-1E cells by lipofectamine. SEAP was then expressed and secreted into culture supernatant and allowed […] detection using a substrate PNPP under 405 nm. […] NF-kB activity was measured 24 hours after addition of cytokine cocktail (10 ng/mL TNFα, 5 ng/mL IL-1β and 10 ng/mL IFN-γ) alone or with JP-3-110 (5 μM) or TNP (5 μM) or MPA (5 μM). Blank, no cytokine stimulation. Cyt, cytokine cocktail. Results are presented as the mean±S.D., n=3.
INS-1E cells which were stably transfected with the SEAP gene containing the response-element for NF-κB were used to screen for anti-inflammatory activity. Briefly, 10^6 cells/well were seeded overnight followed by treatment with 10 ng/mL human recombinant TNFα and either TNP or hybrid drug JP-3-110 (1 μM). SEAP activity was measured 18 h later in supernatant samples (50 µL) using the NF-κB SEAPorter™ Assay Kit (IMGENEX, San Diego, Calif.) and a microplate luminometer. SEAP activity was normalized to the total protein content.

human CD3+ T cells = experiment: Mixed lymphocyte reaction: proliferation of PHA-stimulated T cells; assay type: cell-based; conditions: data not shown; TNP 5 μM
Protocol: Briefly, human peripheral blood mononuclear cells PBMCs were isolated from human buffy coat using Ficoll-Paque. […] Results are presented as the mean±S.D., n=6.
PBMCs were isolated using Ficoll Paque. T cells were isolated from PBMCs using Dynabeads for. T cells were stimulated with PHA (1 μg/ml) for 24 h alone or in the presence of TNP (5 μM) or JP-3-110 (5 μM) for additional 4 days. The total number of PBMCs was measured using T4 Automatic Cell Counter (Nexcelom, Lawrence, Mass.). The extent of T cell activation was determined by measuring the level of IL-2, IL-2sRa, TNFα and IFN-γ in the medium using ELISA at indicated time.
Mixed lymphocytes reaction was used to determine the immunosuppressive effects of MPA and JP-3-110. T cells were purified using dynabeads from peripheral blood mononuclear cells (PBMCs), which were initially isolated from human buffy coat (FIG. 8A). […] The levels of IL-2, IL-2sRa, TNFα and IFNγ were detected by ELISA to study the effects of JP-3-110 and MPA on T cell activation.

(1S,3R,4S,5R)—N-butyl-1,3,4,5-tetrahydroxycyclohexane-1-carboxamide [TNP, reference compound]
NF-κB activities in INS-1E cells (NF-κB): significantly reduced
immunosuppressive effect in mixed lymphocytes reaction (human CD3+ T cells): did not observe any immunosuppressive effect
